# Tests used:
# Format in all cases: in vivo
# [1] = system: barnyardgrass (Echinochloa crus-galli); test: Test A postemergence; conditions: 0 to 100 scale, 0 no effect, 100 complete control, approx. 10 days
# Excerpt: (§1) Seeds of barnyardgrass (Echinochloa crus-galli), large crabgrass (Digitaria sanguinalis), giant foxtail (Setaria faberii), morningglory (Ipomoea spp.), pigweed (Amaranthus retroflexus), velvetleaf (Abutilon theophrasti), wheat (Triticum aestivum) and corn (Zea mays) were planted into a blend of loam soil and sand and treated preemergence with a directed soil spray using test chemicals formulated in a non-phytotoxic solvent mixture which included a surfactant. At the same time these species were also treated with postemergence applications of test compounds formulated in the same manner. Plants ranged in height from 2 to 10 cm and were in the one- to two-leaf stage for the postemergence treatments. Treated plants and untreated controls were maintained in a greenhouse for approximately 10 days, after which time all treated plants were compared to untreated controls and visually evaluated for injury. Plant response ratings, summarized in Table A, are based on a 0 to 100 scale where 0 is no effect and 100 is complete control.
# [2] = system: corn (Zea mays); test: Test A postemergence; conditions: 0 to 100 scale, 0 no effect, 100 complete control, approx. 10 days
# Excerpt: as §1
# [3] = system: giant foxtail (Setaria faberii); test: Test A postemergence; conditions: 0 to 100 scale, 0 no effect, 100 complete control, approx. 10 days
# Excerpt: as §1
# [4] = system: large crabgrass (Digitaria sanguinalis); test: Test A postemergence; conditions: 0 to 100 scale, 0 no effect, 100 complete control, approx. 10 days
# Excerpt: as §1
# [5] = system: morningglory (Ipomoea spp.); test: Test A postemergence; conditions: 0 to 100 scale, 0 no effect, 100 complete control, approx. 10 days
# Excerpt: as §1
# [6] = system: pigweed (Amaranthus retroflexus); test: Test A postemergence; conditions: 0 to 100 scale, 0 no effect, 100 complete control, approx. 10 days
# Excerpt: as §1
# [7] = system: velvetleaf (Abutilon theophrasti); test: Test A postemergence; conditions: 0 to 100 scale, 0 no effect, 100 complete control, approx. 10 days
# Excerpt: as §1
# [8] = system: wheat (Triticum aestivum); test: Test A postemergence; conditions: 0 to 100 scale, 0 no effect, 100 complete control, approx. 10 days
# Excerpt: as §1
# [9] = system: barnyardgrass (Echinochloa crus-galli); test: Test A preemergence; conditions: 0 to 100 scale, 0 no effect, 100 complete control, approx. 10 days
# Excerpt: as §1
# [10] = system: corn (Zea mays); test: Test A preemergence; conditions: 0 to 100 scale, 0 no effect, 100 complete control, approx. 10 days
# Excerpt: as §1
# [11] = system: giant foxtail (Setaria faberii); test: Test A preemergence; conditions: 0 to 100 scale, 0 no effect, 100 complete control, approx. 10 days
# Excerpt: as §1
# [12] = system: large crabgrass (Digitaria sanguinalis); test: Test A preemergence; conditions: 0 to 100 scale, 0 no effect, 100 complete control, approx. 10 days
# Excerpt: as §1
# [13] = system: morningglory (Ipomoea spp.); test: Test A preemergence; conditions: 0 to 100 scale, 0 no effect, 100 complete control, approx. 10 days
# Excerpt: as §1
# [14] = system: pigweed (Amaranthus retroflexus); test: Test A preemergence; conditions: 0 to 100 scale, 0 no effect, 100 complete control, approx. 10 days
# Excerpt: as §1
# [15] = system: velvetleaf (Abutilon theophrasti); test: Test A preemergence; conditions: 0 to 100 scale, 0 no effect, 100 complete control, approx. 10 days
# Excerpt: as §1
# [16] = system: wheat (Triticum aestivum); test: Test A preemergence; conditions: 0 to 100 scale, 0 no effect, 100 complete control, approx. 10 days
# Excerpt: as §1
# [17] = system: barnyardgrass (Echinochloa crus-galli); test: Test B flooded paddy test; conditions: Flood
# Excerpt: (§2) Plant species in the flooded paddy test consisted of rice (Oryza sativa), umbrella sedge (Cyperus difformis), ducksalad (Heteranthera limosa) and barnyardgrass (Echinochloa crus-galli) grown to the 2-leaf stage for testing. At time of treatment, test pots were flooded to 3 cm above the soil surface, treated by application of test compounds directly to the paddy water, and then maintained at that water depth for the duration of the test. Treated plants and controls were maintained in a greenhouse for 13 to 15 days, after which time all species were compared to controls and visually evaluated. Plant response ratings, summarized in Table B, are based on a scale of 0 to 100 where 0 is no effect and 100 is complete control. A dash (-) response means no test result.
# [18] = system: ducksalad (Heteranthera limosa); test: Test B flooded paddy test; conditions: Flood, scale 0 to 100
# Excerpt: as §2
# [19] = system: rice (Oryza sativa); test: Test B flooded paddy test; conditions: Flood, scale 0 to 100
# Excerpt: as §2
# [20] = system: umbrella sedge (Cyperus difformis); test: Test B flooded paddy test; conditions: Flood, scale 0 to 100
# Excerpt: as §2
structure (smiles),measurement,setting,value
"COCCn1c(-c2cc(F)cc(F)c2)cnc(C(=O)C2=C(O)CCCC2=O)c1=O [Compound 5, 6-(3,5-difluorophenyl)-3-[(2-hydroxy-6-oxo-1-cyclohexen-1-yl)carbonyl]-1-(2-methoxyethyl)-2(1H)-pyrazinone]","Plant response rating, Barnyardgrass",[1]; 31 g ai/ha,50
same,"Plant response rating, Barnyardgrass",[1]; 125 g ai/ha,90
same,"Plant response rating, Barnyardgrass",[1]; 500 g ai/ha,90
same,"Plant response rating, Corn",[2]; 31 g ai/ha,10
same,"Plant response rating, Corn",[2]; 125 g ai/ha,50
same,"Plant response rating, Corn",[2]; 500 g ai/ha,60
same,"Plant response rating, Foxtail, Giant",[3]; 31 g ai/ha,30
same,"Plant response rating, Foxtail, Giant",[3]; 125 g ai/ha,60
same,"Plant response rating, Foxtail, Giant",[3]; 500 g ai/ha,80
same,"Plant response rating, Crabgrass, Large",[4]; 31 g ai/ha,70
same,"Plant response rating, Crabgrass, Large",[4]; 125 g ai/ha,90
same,"Plant response rating, Crabgrass, Large",[4]; 500 g ai/ha,90
same,"Plant response rating, Morningglory",[5]; 31 g ai/ha,80
same,"Plant response rating, Morningglory",[5]; 125 g ai/ha,90
same,"Plant response rating, Morningglory",[5]; 500 g ai/ha,90
same,"Plant response rating, Pigweed",[6]; 31 g ai/ha,80
same,"Plant response rating, Pigweed",[6]; 125 g ai/ha,100
same,"Plant response rating, Pigweed",[6]; 500 g ai/ha,100
same,"Plant response rating, Velvetleaf",[7]; 31 g ai/ha,70
same,"Plant response rating, Velvetleaf",[7]; 125 g ai/ha,80
same,"Plant response rating, Velvetleaf",[7]; 500 g ai/ha,100
same,"Plant response rating, Wheat",[8]; 31 g ai/ha,0
same,"Plant response rating, Wheat",[8]; 125 g ai/ha,30
same,"Plant response rating, Wheat",[8]; 500 g ai/ha,30
same,"Plant response rating, Barnyardgrass",[9]; 31 g ai/ha,0
same,"Plant response rating, Barnyardgrass",[9]; 125 g ai/ha,50
same,"Plant response rating, Barnyardgrass",[9]; 500 g ai/ha,80
same,"Plant response rating, Corn",[10]; 31 g ai/ha,0
same,"Plant response rating, Corn",[10]; 125 g ai/ha,0
same,"Plant response rating, Corn",[10]; 500 g ai/ha,0
same,"Plant response rating, Foxtail, Giant",[11]; 31 g ai/ha,20
same,"Plant response rating, Foxtail, Giant",[11]; 125 g ai/ha,70
same,"Plant response rating, Foxtail, Giant",[11]; 500 g ai/ha,80
same,"Plant response rating, Crabgrass, Large",[12]; 31 g ai/ha,20
same,"Plant response rating, Crabgrass, Large",[12]; 125 g ai/ha,100
same,"Plant response rating, Crabgrass, Large",[12]; 500 g ai/ha,100
same,"Plant response rating, Morningglory",[13]; 31 g ai/ha,0
same,"Plant response rating, Morningglory",[13]; 125 g ai/ha,40
same,"Plant response rating, Morningglory",[13]; 500 g ai/ha,80
same,"Plant response rating, Pigweed",[14]; 31 g ai/ha,40
same,"Plant response rating, Pigweed",[14]; 125 g ai/ha,90
same,"Plant response rating, Pigweed",[14]; 500 g ai/ha,90
same,"Plant response rating, Velvetleaf",[15]; 31 g ai/ha,30
same,"Plant response rating, Velvetleaf",[15]; 125 g ai/ha,70
same,"Plant response rating, Velvetleaf",[15]; 500 g ai/ha,80
same,"Plant response rating, Wheat",[16]; 31 g ai/ha,0
same,"Plant response rating, Wheat",[16]; 125 g ai/ha,0
same,"Plant response rating, Wheat",[16]; 500 g ai/ha,0
same,"Plant response rating, Barnyardgrass","[17]; 31 g ai/ha, scale 0 to 100",0
same,"Plant response rating, Barnyardgrass","[17]; 62 g ai/ha, scale 0 to 100",0
same,"Plant response rating, Barnyardgrass","[17]; 125 g ai/ha, scale 0 to 100",25
same,"Plant response rating, Barnyardgrass","[17]; 250 g ai/ha, scale 0 to 100 (0 no effect, 100 complete control)",80
same,"Plant response rating, Ducksalad",[18]; 31 g ai/ha,0
same,"Plant response rating, Ducksalad",[18]; 62 g ai/ha,40
same,"Plant response rating, Ducksalad",[18]; 125 g ai/ha,60
same,"Plant response rating, Ducksalad",[18]; 250 g ai/ha,90
same,"Plant response rating, Rice",[19]; 31 g ai/ha,0
same,"Plant response rating, Rice",[19]; 62 g ai/ha,0
same,"Plant response rating, Rice",[19]; 125 g ai/ha,10
same,"Plant response rating, Rice",[19]; 250 g ai/ha,20
same,"Plant response rating, Sedge, Umbrella",[20]; 31 g ai/ha,50
same,"Plant response rating, Sedge, Umbrella",[20]; 62 g ai/ha,70
same,"Plant response rating, Sedge, Umbrella",[20]; 125 g ai/ha,90
same,"Plant response rating, Sedge, Umbrella",[20]; 250 g ai/ha,100
